Laboratory results: patent publication US10821100B2, “Triazolone compounds as mPGES-1 inhibitors” (Glenmark Pharmaceuticals S.A., priority 2012, dated 2020)

Biological target: T1, Recombinant human mPGES-1 (Homo sapiens, UniProt O14684)
T1 construct: made in house; host or cells: CHO cells (crude microsomal fractions)
T1 sequence (O14684 1-152): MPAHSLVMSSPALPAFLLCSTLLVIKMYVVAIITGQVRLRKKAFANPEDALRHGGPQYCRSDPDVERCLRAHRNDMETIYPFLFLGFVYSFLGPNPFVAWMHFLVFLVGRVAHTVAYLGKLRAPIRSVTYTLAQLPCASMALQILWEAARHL
Assay: In-vitro screening of mPGES-1 inhibitors (inhibition of PGE2 formation from PGH2, HTRF detection)
Type: biochemical
Conditions: mPGES-1 enzyme; for inhibition at 1 µM: 1 μM test compound, read-out: Percentage inhibition at 1 μM; for inhibition at 10 µM: 10 μM test compound, read-out: Percentage inhibition at 10 μM; for IC50: class symbols
Method in brief: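 PGH2-to-PGE2 isomerization run for 1 min with 15 μM PGH2 after 10 min compound preincubation with microsomal enzyme (40–60 μg/mL) and 2.5 mM GSH, pH buffer 0.1 M potassium phosphate with EDTA. Stannous chloride quench, HTRF PGE2 readout, IC50 fitted against uninhibited reaction.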

Row | inhibition at 1 µM (crude microsomal fractions) [%] | inhibition at 10 µM (crude microsomal fractions) [%] | IC50 [µM] | inhibition at 3 µM (3 μM test compound, crude microsomal fractions, read-out: Percentage inhibition at 3 μM) [%] | Structure (SMILES)
1 | 97.6 | 97.5 | < 0.05 |  | CC(C)(C)C(=O)NCc1ccc(Cl)c(-n2nc(-c3ccc(C#CC4CC4)cc3)[nH]c2=O)c1 [Example-141, N-(4-Chloro-3-(3-(4-(2-cyclopropylethynyl)phenyl)-4,5-dihydro-5-oxo-1,2,4-triazol-1-yl)benzyl)pivalamide]
2 | 88.7 | 94.3 | < 0.05 |  | O=C(NCc1cc(-c2nn(-c3ccc(C(F)(F)F)cc3)c(=O)[nH]2)c(Cl)cc1F)[C@H]1CCCO1 [Example-119, (R)—N-(4-chloro-2-fluoro-5-(5-oxo-1-(4-(trifluoromethyl)phenyl)-4,5-dihydro-1H-1,2,4-triazol-3-yl)benzyl)tetrahydrofuran-2-carboxamide]
3 | 56.1 | 90.5 |  |  | Cc1ccc(CNC(=O)[C@H]2CCCO2)c(C)c1-c1nn(-c2ccc(C(F)(F)F)cc2)c(=O)[nH]1 [Example-107, (R)—N-(2,4-Dimethyl-3-(5-oxo-1-(4-(trifluoromethyl)phenyl)-4,5-dihydro-1H-1,2,4-triazol-3-yl)benzyl)tetrahydrofuran-2-carboxamide]
4 | 86.3 | 90.4 | > 0.1 |  | O=c1[nH]c(-c2c(F)cccc2Cl)nn1-c1ccc(C#Cc2ccc(C(F)(F)F)cn2)cc1 [Example-13, 5-(2-Chloro-6-fluorophenyl)-2-(4-{[5-(trifluoromethyl)pyridin-2-yl]ethynyl}phenyl)-2,4-dihydro-3H-1,2,4-triazol-3-one]
5 | 87.2 | 96.2 | < 0.05 |  | CC(C)(C)C#Cc1ccc(-c2nn(-c3c(Cl)ccc(CNC(=O)C(C)(C)C)c3F)c(=O)[nH]2)cc1 [Example-111, N-(4-Chloro-2-fluoro-3-(4,5-dihydro-3-(4-(3,3-dimethylbut-1-ynyl)phenyl)-5-oxo-1,2,4-triazol-1-yl)benzyl)pivalamide]
6 | 92.9 | 94 | < 0.05 |  | CC(C)(C)S(=O)(=O)NCc1ccc(Cl)c(-c2nn(-c3ccc(C(F)(F)F)cc3)c(=O)[nH]2)c1 [Example-182, N-(4-Chloro-3-(5-oxo-1-(4-(trifluoromethyl)phenyl)-4,5-dihydro-1H-1,2,4-triazol-3-yl)benzyl)-2-methylpropane-2-sulfonamide]
7 | 70.7 | 92.3 |  |  | O=C(Nc1cc(C(F)(F)F)ccc1F)c1ccc(-n2nc(-c3c(F)cccc3Cl)[nH]c2=O)cc1 [Example-34, 4-(3-(2-Chloro-6-fluorophenyl)-5-oxo-4,5-dihydro-1H-1,2,4-triazol-1-yl)-N-(2-fluoro-5-(trifluoromethyl)phenyl)benzamide]
8 | 79.9 | 96.7 | > 0.1 |  | COc1ccc(-n2nc(-c3c(Cl)ccc(CNC(=O)C(C)(C)C)c3F)[nH]c2=O)cc1 [Example-86, N-(4-Chloro-2-fluoro-3-(1-(4-methoxyphenyl)-5-oxo-4,5-dihydro-1H-1,2,4-triazol-3-yl)benzyl)pivalamide]
9 | 98.7 | 99 | < 0.05 |  | CC(C)(C)C(=O)NCc1ccc(Cl)c(-c2nn(-c3ccc(C(F)(F)F)nc3)c(=O)[nH]2)c1F [Example-95, N-(4-Chloro-2-fluoro-3-(5-oxo-1-(6-(trifluoromethyl)pyridin-3-yl)-4,5-dihydro-1H-1,2,4-triazol-3-yl)benzyl)pivalamide]
10 | 97.4 | 98.1 | < 0.05 |  | Cc1ccc(-n2nc(-c3cc(CNC(=O)C(C)(C)C)ccc3Cl)[nH]c2=O)cc1Cl [Example-140, N-(4-Chloro-3-(1-(3-chloro-4-methylphenyl)-4,5-dihydro-5-oxo-1H-1,2,4-triazol-3-yl)benzyl)pivalamide]

The remaining lines, values behind:

Row | Structure (SMILES) | inhibition at 1 µM (crude microsomal fractions) [%] | inhibition at 10 µM (crude microsomal fractions) [%] | IC50 [µM] | inhibition at 3 µM (3 μM test compound, crude microsomal fractions, read-out: Percentage inhibition at 3 μM) [%]
11 | O=c1[nH]c(-c2c(F)cccc2Cl)nn1-c1ccc(C#Cc2cnc(N3CCOCC3)nc2)cc1 [Example-15, 3-(2-Chloro-6-fluorophenyl)-1-(4-((2-morpholinopyrimidin-5-yl)ethynyl)phenyl)-1H-1,2,4-triazol-5(4H)-one] | 64.2 | 83.8 |  | 
12 | COc1cc(-n2nc(-c3c(F)cccc3Cl)[nH]c2=O)ccc1C(=O)Nc1cc(Cl)ccc1C [Example-38, N-(5-Chloro-2-methylphenyl)-4-(3-(2-chloro-6-fluorophenyl)-5-oxo-4,5-dihydro-1H-1,2,4-triazol-1-yl)-2-methoxybenzamide] | 87.4 | 84.9 | 0.05 to 0.1 | 
13 | O=c1[nH]c(-c2cc(S(=O)(=O)NC3CC3)ccc2Cl)nn1-c1ccc(C(F)(F)F)cc1 [Example-96, 4-Chloro-N-cyclopropyl-3-(5-oxo-1-(4-(trifluoromethyl)phenyl)-4,5-dihydro-1H-1,2,4-triazol-3-yl)benzenesulfonamide] | 52.2 | 68.7 |  | 
14 | CC1(C)CCC(n2nc(-c3cc(CNC(=O)C(F)(F)F)ccc3Cl)[nH]c2=O)CC1 [Example-117, N-(4-chloro-3-(4,5-dihydro-1-(4,4-dimethylcyclohexyl)-5-oxo-1H-1,2,4-triazol-3-yl)benzyl)-2,2,2-trifluoroacetamide] | 67.9 | 95 |  | 
15 | COc1ccc(-n2nc(-c3c(F)cccc3Cl)[nH]c2=O)cc1C(=O)NCC1CC1 [Example-19, 5-[3-(2-Chloro-6-fluorophenyl)-5-oxo-4,5-dihydro-1H-1,2,4-triazol-1-yl]-N-(cyclopropylmethyl)-2-methoxybenzamide] | 5.11 | 29.7 |  | 
16 | COc1cc(-n2nc(-c3cc(CNC(=O)C4CC4)ccc3Cl)[nH]c2=O)ccc1C(=O)Nc1cccc(C(F)F)c1 [Example-68, 4-(3-(2-Chloro-5-(cyclopropanecarboxamidomethyl)phenyl)-5-oxo-4,5-dihydro-1H-1,2,4-triazol-1-yl)-N-(3-(difluoromethyl)phenyl)-2-methoxybenzamide] | 97.4 | 96.4 | < 0.05 | 
17 | COc1cc(-n2nc(-c3c(C)cccc3Cl)[nH]c2=O)ccc1-c1nc(-c2ccc(Cl)cc2)no1 [Example-55, 3-(2-Chloro-6-methylphenyl)-1-(4-(3-(4-chlorophenyl)-1,2,4-oxadiazol-5-yl)-3-methoxyphenyl)-1H-1,2,4-triazol-5(4H)-one] | 81 |  | < 0.05 | 91.8
18 | COc1cc(-c2nn(-c3c(Cl)cccc3Cl)c(=O)[nH]2)ccc1C(=O)Nc1ccc(F)c(C(F)(F)F)c1 [Example-77, 4-(1-(2,6-Dichlorophenyl)-5-oxo-4,5-dihydro-1H-1,2,4-triazol-3-yl)-N-(4-fluoro-3-(trifluoromethyl)phenyl)-2-methoxybenzamide] | 93.2 | 98.1 | 0.05 to 0.1 | 
19 | Cc1csc(-c2ccc(-n3nc(-c4c(F)cccc4-c4cc(C)cs4)[nH]c3=O)cc2)c1 [Example-4, 5-[2-Fluoro-6-(4-methylthiophen-2-yl)phenyl]-2-[4-(4-methylthiophen-2-yl)phenyl]-2,4-dihydro-3H-1,2,4-triazol-3-one] | 46.4 | 69.7 |  | 
20 | CC(C)C(=O)NCc1ccc(Cl)c(-n2nc(-c3ccc(C#CC(C)(C)C)cc3)[nH]c2=O)c1 [Example-143, N-(4-Chloro-3-(4,5-dihydro-3-(4-(3,3-dimethylbut-1-ynyl)phenyl)-5-oxo-1,2,4-triazol-1-yl)benzyl)isobutyramide] | 99.2 | 90.7 | < 0.05 | 
